# Data taken from patent publication US20040180916A1, “Treatment of pain with combinations of nalbuphine and other kappa-opioid receptor agonists and opioid receptor antagonists” (The Regents of the University of California, priority 2002, published 2004).
# Counter-ions that a name gives are not always drawn. Like-named read-outs stand apart in the source and are kept apart here.
# Experiments:
# postoperative pain [1] = settings: intravenous; for analgesic response (change in VAS pain rating): nalbuphine hydrochloride salt 2.5 mg alone
# From the text: In this clinical trial 67 patients underwent standardized surgery by the same oral surgeon for removal of third molar teeth, including at least one bony impacted mandibular third molar. Prior to surgery, patients received intravenous diazepam, nitrous oxide, and a local anesthetic (mepivacaine without vasoconstrictor to obtain a nerve block of short duration). After surgery, each patient was randomly assigned to receive an injection of nalbuphine hydrochloride salt (Abbott Laboratories, Abbott Park, Ill.) 2.5 mg either alone or combined with naloxone hydrochloride salt (0.4 mg) in an open injection, double-blinded fashion, through an intravenous line.
# Baseline pain intensity was defined as the last VAS pain rating before administration of the test drug. VAS pain ratings were recorded at 20 minute intervals beginning ten minutes after administration of the test drug. The duration of the experiment was two hours and fifty minutes, measured from the time of administration of the test drug. For each patient, the magnitude of the analgesic (or anti-analgesic) response was defined as the difference between the pain rating at each time point following test drug administration and the baseline VAS pain rating.
# postoperative pain [2] = settings: nalbuphine hydrochloride salt 2.5 mg alone; both sexes; intravenous
# Method: In this clinical trial, 65 patients underwent standardized surgery by the same oral surgeon for removal of third molar teeth, including at least one bony impacted mandibular third molar. Prior to surgery, patients received intravenous diazepam, nitrous oxide, and a local anesthetic (mepivacaine without vasoconstrictor to obtain a nerve block of short duration). After surgery, each patient was randomly assigned to receive an injection of 2.5 mg of nalbuphine hydrochloride salt (Abbott Laboratories, Abbott Park, Ill.) either alone or combined with 0.2 mg naloxone hydrochloride salt in an open injection, double-blinded fashion, through an intravenous line.
# Baseline pain intensity was defined as the last VAS pain rating before administration of the test drug. VAS pain ratings were recorded at 20 minute intervals beginning ten minutes after administration of the test drug. The duration of the experiment, measured from the time of administration of the test drug, was two hours and fifty minutes. For each patient, the magnitude of the analgesic (or anti-analgesic) response was defined as the difference between the pain rating at each time point following test drug administration and the baseline VAS pain rating.
structure (smiles),measurement,setting,value
"Oc1ccc2c3c1O[C@H]1[C@@H](O)CC[C@@]4(O)[C@@H](C2)N(CC2CCC2)CC[C@]314 [nalbuphine hydrochloride salt, nalbuphine]",analgesic response (change in VAS pain rating),"postoperative pain [1]; FIG. 4a, women",induced brief analgesia
same,analgesic response (change in VAS pain rating),"postoperative pain [1]; FIG. 4b, men",failed to produce significant analgesia
same,anti-analgesia,"postoperative pain [1]; women, nalbuphine hydrochloride salt 2.5 mg",apparently insufficient to produce anti-analgesia
same,analgesic effect,postoperative pain [2],initial analgesic effect of administration of nalbuphine alone observed in both sexes
